From the NIST ThermoML archive (doi:10.1016/j.fluid.2010.01.027)

Details: for mass density: Vibrating tube method

FC(F)(F)C(F)(F)C(F)(F)C(F)(F)F [decafluorobutane]
speed of sound [m/s], Gas, sonar gas analyzer
Details	10 kPa	20 kPa	30 kPa	50 kPa	70 kPa	100 kPa	150 kPa	200 kPa	250 kPa	300 kPa
248.7 K	95.1	94.56	93.98	–	–	–	–	–	–	–
257.7 K	96.57	96.22	95.7	94.78	–	–	–	–	–	–
271.3 K	99.26	98.71	98.33	97.39	96.39	94.79	–	–	–	–
281.5 K	101.05	100.64	100.23	99.38	98.4	97.04	95.08	–	–	–
293.1 K	103.02	102.7	102.37	101.71	100.86	99.66	97.68	95.63	–	–
303.1 K	104.78	104.57	104.25	103.35	103.06	103.05	99.91	98.41	96.5	94.89

FC(F)(F)C(F)(F)C(F)(F)C(F)(F)C(F)(F)C(F)(F)C(F)(F)F [hexadecafluoroheptane]
101.33 kPa, Liquid
Details	mass density [kg/m3]
278.15 K	1769.3
288.15 K	1751
298.15 K	1728.4
308.15 K	1700.8
318.15 K	1672.7
328.15 K	1641.9
333.15 K	1629.4

101.33 kPa, Liquid, sound analyzer
Details	speed of sound [m/s]
278.15 K	608.3
288.15 K	578.42
298.15 K	548.73
308.15 K	517.47
318.15 K	500.56
328.15 K	470.6
333.15 K	457.24

FC(F)(F)C(F)(F)C(F)(F)C(F)(F)C(F)(F)C(F)(F)C(F)(F)C(F)(F)F [octadecafluorooctane]
101.33 kPa, Liquid
Details	mass density [kg/m3]
278.15 K	1810
288.15 K	1786.7
298.15 K	1760.6
308.15 K	1735
318.15 K	1708.6
328.15 K	1681.6
338.15 K	1656.4

101.33 kPa, Liquid, sound analyzer
Details	speed of sound [m/s]
278.15 K	640.32
288.15 K	610.05
298.15 K	581.94
308.15 K	552.33
318.15 K	524.1
328.15 K	508.43
338.15 K	479.24

FC(F)(F)C(F)(F)C(F)(F)F [octafluoropropane]
speed of sound [m/s], Gas, sonar gas analyzer
Details	248.2 K	259.8 K	270.2 K	272.6 K	283.2 K	296.1 K	303.9 K
10 kPa	107.9	–	112.31	–	–	–	119.13
20 kPa	107.6	110	111.99	–	114.63	–	118.98
30 kPa	107.25	109.59	111.77	–	114.12	–	118.79
50 kPa	106.56	108.88	111.27	–	113.84	116.81	118.42
70 kPa	105.77	108.23	110.9	–	113.1	116.31	118.04
100 kPa	104.62	107.27	–	110.29	112.46	115.55	117.43
150 kPa	102.76	105.51	–	108.59	111.28	114.42	116.26
200 kPa	–	103.72	–	106.9	109.88	113.23	115.36
250 kPa	–	101.83	–	105.22	108.56	111.94	114.31
300 kPa	–	–	–	103.59	107.1	110.7	113.14
350 kPa	–	–	–	101.9	105.61	109.43	112
400 kPa	–	–	–	100.27	103.99	108.12	110.63

FC(F)(F)C(F)(F)C(F)(F)C(F)(F)C(F)(F)C(F)(F)F [perfluorohexane]
101.33 kPa, Liquid
Details	mass density [kg/m3]
278.15 K	1739.8
288.15 K	1712.7
298.15 K	1682.8
308.15 K	1651.9

101.33 kPa, Liquid, sound analyzer
Details	speed of sound [m/s]
278.15 K	571.89
288.15 K	540.31
298.15 K	510.7
